Assay results reported in ChEMBL document CHEMBL1201862, “PubChem BioAssay data set” (2004).
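Exposure lasted 48 hours, with cells grown in 96-well plates and compounds tested at five concentrations. The concentration for 50% growth inhibition is given as GI50.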 Active and inactive are the calls of the source. Cut-off read from the data, not from the text of the source: active = GI50 up to about 1.1 µM and inactive = higher.

Experiments:
Test in all cases: NCI anticancer screen, dose series, 48 h
COLO 205 = test system: COLO 205
A498 = test system: A498
HOP-62 = test system: HOP-62
TK-10 = test system: TK-10
HT-29 = test system: HT-29
Malme-3M = test system: Malme-3M
SR = test system: SR
HCC 2998 = test system: HCC 2998
SF-539 = test system: SF-539
SF-295 = test system: SF-295
SNB-78 = test system: SNB-78
SK-MEL-2 = test system: SK-MEL-2
HOP-92 = test system: HOP-92
UACC-62 = test system: UACC-62
M14 = test system: M14
OVCAR-5 = test system: OVCAR-5

Measured: GI50

O=c1c2ccccc2[nH]c(=S)n1-c1ccc(Br)cc1
inactive: COLO 205 > 100 µM | A498 51.6 µM | HOP-62 > 100 µM | TK-10 > 100 µM | HT-29 44.9 µM | Malme-3M > 100 µM | SR > 100 µM | HCC 2998 > 100 µM | SF-539 > 100 µM | SF-295 66.8 µM | SNB-78 > 100 µM | SK-MEL-2 > 100 µM | HOP-92 18.8 µM

O=c1c2cccnc2ncn1CCCN1CCOCC1
inactive: COLO 205 > 100 µM | UACC-62 > 100 µM | HOP-62 > 100 µM | TK-10 > 100 µM | HT-29 > 100 µM | Malme-3M > 100 µM | M14 > 100 µM | SR > 100 µM | HCC 2998 > 100 µM | SF-539 > 100 µM | SF-295 > 100 µM | SNB-78 > 100 µM | OVCAR-5 > 100 µM | SK-MEL-2 > 10 µM | HOP-92 > 100 µM

CN(C)CCn1c2c3ccccc3ccc2c2oc(=O)c3ccccc3c21
inactive: COLO 205 4.17 µM | UACC-62 7.35 µM | HOP-62 13.2 µM | TK-10 12.6 µM | HT-29 4.86 µM | Malme-3M 9.86 µM | M14 6.12 µM | SR 2.78 µM | SF-539 2.5 µM | SF-295 9.04 µM | SNB-78 19.7 µM | OVCAR-5 19.5 µM | SK-MEL-2 17.9 µM | HOP-92 5.58 µM

Cn1c(=O)oc2cc(C3CCC(=O)N3Cc3csc(-c4ccccc4)n3)ccc21 (configuration not stated)
inactive: COLO 205 77.3 µM | UACC-62 > 100 µM | HOP-62 > 100 µM | TK-10 > 100 µM | HT-29 79.1 µM | Malme-3M > 100 µM | M14 > 100 µM | SR 63.7 µM | HCC 2998 > 100 µM | SF-539 > 100 µM | SF-295 > 100 µM | SNB-78 > 100 µM | OVCAR-5 > 100 µM | SK-MEL-2 > 100 µM

Cc1c(C2Cc3ccccc3N2)c2ccccc2n1C (configuration not stated)
inactive: COLO 205 > 100 µM | UACC-62 > 100 µM | A498 > 100 µM | HOP-62 > 100 µM | TK-10 > 100 µM | HT-29 > 100 µM | Malme-3M > 100 µM | M14 > 100 µM | SR > 100 µM | HCC 2998 > 100 µM | SF-539 > 100 µM | SF-295 > 100 µM | SNB-78 > 100 µM | OVCAR-5 > 100 µM | SK-MEL-2 > 100 µM

O=C1NC2OC(CO)C(O)C(O1)C2O (configuration not stated)
inactive: COLO 205 > 100 µM | UACC-62 > 100 µM | A498 > 100 µM | HOP-62 > 100 µM | TK-10 > 100 µM | HT-29 > 100 µM | Malme-3M > 100 µM | M14 > 100 µM | SR > 100 µM | SF-539 > 100 µM | SF-295 > 100 µM | SNB-78 > 100 µM | OVCAR-5 > 100 µM | SK-MEL-2 > 100 µM | HOP-92 > 100 µM

CCOC(=O)Cc1csc(Nc2ccccc2[N+](=O)[O-])n1
inactive: COLO 205 > 100 µM | UACC-62 > 100 µM | A498 > 100 µM | HOP-62 > 100 µM | TK-10 > 100 µM | HT-29 > 100 µM | Malme-3M > 100 µM | M14 > 100 µM | SR 29.7 µM | HCC 2998 > 100 µM | SF-539 > 100 µM | SF-295 > 100 µM | SNB-78 > 100 µM | OVCAR-5 > 100 µM | SK-MEL-2 > 100 µM | HOP-92 > 100 µM

O=CN1CCN(C=S)CC1
inactive: COLO 205 > 100 µM | UACC-62 > 100 µM | A498 > 100 µM | HOP-62 > 100 µM | TK-10 > 100 µM | HT-29 > 100 µM | Malme-3M > 100 µM | M14 > 100 µM | SR 54.5 µM | HCC 2998 > 100 µM | SF-539 > 100 µM | SF-295 > 100 µM | SNB-78 > 100 µM | OVCAR-5 > 100 µM | HOP-92 > 100 µM

COc1ccc(NC(=O)CC2S/C(=N\c3ccccc3C)NC2=O)c([N+](=O)[O-])c1 (configuration not stated)
inactive: COLO 205 > 100 µM | UACC-62 > 100 µM | HOP-62 > 100 µM | TK-10 > 100 µM | HT-29 > 100 µM | Malme-3M > 100 µM | M14 > 100 µM | SR > 100 µM | HCC 2998 > 100 µM | SF-539 > 100 µM | SF-295 > 100 µM | SNB-78 > 100 µM | OVCAR-5 > 100 µM | SK-MEL-2 > 100 µM | HOP-92 > 100 µM

COC(=O)[C@@H]1C(=O)O[C@@H](c2cc(OC)c(OC)cc2OC)[C@@H]1C(=O)OC.COC(=O)[C@H]1C(=O)O[C@@H](c2cc(OC)c(OC)cc2OC)[C@@H]1C(=O)OC
inactive: COLO 205 > 100 µM | UACC-62 > 100 µM | A498 > 100 µM | HOP-62 > 100 µM | TK-10 > 100 µM | HT-29 > 100 µM | Malme-3M > 100 µM | M14 > 100 µM | SR > 100 µM | HCC 2998 > 100 µM | SF-539 > 100 µM | SF-295 > 100 µM | SNB-78 > 100 µM | OVCAR-5 > 100 µM | HOP-92 > 100 µM
